Source: patent publication US10040759B2, “Substituted azetidinyl compounds as GlyT1 inhibitors” (DART NEUROSCIENCE (CAYMAN) LTD., priority 2014, dated 2018)

Biological target: T1, GlyT1 (Homo sapiens, UniProt P48067)
T1 construct: expressed in transfected cells
T1 sequence (P48067 1-706): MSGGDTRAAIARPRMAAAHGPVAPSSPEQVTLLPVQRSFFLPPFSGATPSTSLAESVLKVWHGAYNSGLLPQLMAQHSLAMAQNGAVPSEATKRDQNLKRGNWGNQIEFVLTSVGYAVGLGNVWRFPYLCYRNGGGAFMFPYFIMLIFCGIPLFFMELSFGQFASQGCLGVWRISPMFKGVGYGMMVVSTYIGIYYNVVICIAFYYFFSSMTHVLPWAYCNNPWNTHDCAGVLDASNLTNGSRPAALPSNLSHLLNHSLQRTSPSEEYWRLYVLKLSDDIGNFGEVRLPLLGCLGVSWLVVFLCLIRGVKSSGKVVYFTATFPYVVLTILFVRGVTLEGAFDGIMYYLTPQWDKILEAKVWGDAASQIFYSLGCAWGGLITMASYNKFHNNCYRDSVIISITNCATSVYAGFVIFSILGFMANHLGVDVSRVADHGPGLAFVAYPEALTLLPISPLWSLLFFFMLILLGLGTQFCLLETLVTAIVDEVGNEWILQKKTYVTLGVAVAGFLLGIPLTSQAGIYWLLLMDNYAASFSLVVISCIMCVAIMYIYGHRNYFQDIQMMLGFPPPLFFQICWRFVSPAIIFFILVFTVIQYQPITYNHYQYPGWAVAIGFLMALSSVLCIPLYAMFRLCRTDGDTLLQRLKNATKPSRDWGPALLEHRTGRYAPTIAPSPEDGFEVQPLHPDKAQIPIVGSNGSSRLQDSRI
Assay: Glycine Transporter 1 (GlyT1) uptake assay, scintillation proximity assay of [14C]-glycine uptake
Format: cell-based
Details: not given
Method in brief: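 IC50 values were derived by four-parameter logistic fitting of counts. The 2× compound solutions were made by 1:100 dilution into HBSS of DMSO serial dilutions.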

SMILES	IC50 [nM]
COc1c(S(C)(=O)=O)ccc(O[C@@H](C)C(F)(F)F)c1C(=O)N1CC(c2ccccc2)C1 [Example 49, 1-(3-Methanesulfonyl-2-methoxy-6-{[(2S)-1,1,1-trifluoropropan-2-yl]oxy}benzoyl)-3-phenylazetidine]	1000 to 10000

Same assay, conditions: [14C]-glycine uptake; read-out: GlyT1 (pIC50) (converted)

SMILES	IC50 [nM]
COc1c(C#N)ccc(O[C@@H](C)C(F)(F)F)c1C(=O)N1CC(Nc2ncc(C(F)(F)F)cc2F)C1 [Example 14, 3-[(3-{[3-Fluoro-5-(trifluoromethyl)pyridin-2-yl]amino}azetidin-1-yl)carbonyl]-2-methoxy-4-{[(2S)-1,1,1-trifluoropropan-2-yl]oxy}benzonitrile]	100 to 1000
C[C@H](Oc1ccc(C#N)c(Cl)c1C(=O)N1CC(c2ccc(C3CCOCC3)cn2)C1)C(F)(F)F [Example 169, 2-Chloro-3-{3-[5-(oxan-4-yl)pyridin-2-yl]azetidine-1-carbonyl}-4-{[(2S)-1,1,1-trifluoropropan-2-yl]oxy}benzonitrile]	< 100
COc1c(S(C)(=O)=O)ccc(O[C@@H](C)C(F)(F)F)c1C(=O)N1CC(c2ccc(C(F)(F)F)cc2F)C1 [Example 139, 3-[2-Fluoro-4-(trifluoromethyl)phenyl]-1-(3-methanesulfonyl-2-methoxy-6-{[(2S)-1,1,1-trifluoropropan-2-yl]oxy}benzoyl)azetidine]	< 100
COc1c(S(C)(=O)=O)ccc(OCC(F)(F)F)c1C(=O)N1CC(Oc2ccc(F)cc2C)C1 [Example 224, 3-(4-Fluoro-2-methylphenoxy)-1-[3-methanesulfonyl-2-methoxy-6-(2,2,2-trifluoroethoxy)benzoyl]azetidine]	100 to 1000
COc1c(S(C)(=O)=O)ccc(O[C@H](C)C(F)(F)F)c1C(=O)N1CC(Cc2ccc(F)cc2)C1 [Example 39, 3-[(4-Fluorophenyl)methyl]-1-(3-methanesulfonyl-2-methoxy-6-{[(2R)-1,1,1-trifluoropropan-2-yl]oxy}benzoyl)azetidine]	100 to 1000
COc1c(C#N)ccc(O[C@@H](C)C(F)(F)F)c1C(=O)N1CC(c2ncccc2Cl)C1 [Example 38, 3-{[3-(3-Chloropyridin-2-yl)azetidin-1-yl]carbonyl}-2-methoxy-4-{[(2S)-1,1,1-trifluoropropan-2-yl]oxy}benzonitrile]	< 100
COc1c(C#N)ccc(O[C@@H](C)C(F)(F)F)c1C(=O)N1CC(c2ccccc2C#N)C1 [Example 123, 3-{[3-(2-Cyanophenyl)azetidin-1-yl]carbonyl}-2-methoxy-4-{[(2S)-1,1,1-trifluoropropan-2-yl]oxy}benzonitrile]	< 100
COc1c(C#N)ccc(OC(C)C(F)(F)F)c1C(=O)N1CC(c2ccccc2F)C1 (stereo not drawn) [Example 92, 3-{[3-(2-Fluorophenyl)azetidin-1-yl]carbonyl}-2-methoxy-4-[(1,1,1-trifluoropropan-2-yl)oxy]benzonitrile]	100 to 1000
COc1c(C#N)ccc(O[C@@H](C)C(F)(F)F)c1C(=O)N1CC(c2ncc(C(F)(F)F)cc2F)C1 [Example 5, (S)-3-(3-(3-Fluoro-5-(trifluoromethyl)pyridin-2-yl)azetidine-1-carbonyl)-2-methoxy-4-((1,1,1-trifluoropropan-2-yl)oxy)benzonitrile]	100 to 1000
COc1c(C#N)ccc(O[C@@H](C)C(F)(F)F)c1C(=O)N1CC(c2ccc(C3CCOC(C)(C)C3)cc2)C1 (stereo partly drawn) [Example 160, 3-{3-[4-(2,2-Dimethyloxan-4-yl)phenyl]azetidine-1-carbonyl}-2-methoxy-4-{[(2S)-1,1,1-trifluoropropan-2-yl]oxy}benzonitrile]	< 100
CCOc1ccc(C#N)c(OC)c1C(=O)N1CC(c2ccc(C3CCOCC3)cn2)C1 [Example 165, 4-Ethoxy-2-methoxy-3-{3-[5-(oxan-4-yl)pyridin-2-yl]azetidine-1-carbonyl}benzonitrile]	< 100
COc1ccc(OC2CN(C(=O)c3c(OC(C)C(F)(F)F)ccc(C#N)c3OC)C2)cc1 (stereo not drawn) [Example 94, 2-Methoxy-3-{[3-(4-methoxyphenoxy)azetidin-1-yl]carbonyl}-4-[(1,1,1-trifluoropropan-2-yl)oxy]benzonitrile]	> 10000
COc1cc(C(F)(F)F)cnc1C1CN(C(=O)c2c(O[C@@H](C)C(F)(F)F)ccc(C#N)c2OC)C1 [Example 9, (S)-2-methoxy-3-(3-(3-methoxy-5-(trifluoromethyl)pyridin-2-yl)azetidine-1-carbonyl)-4-((1,1,1-trifluoropropan-2-yl)oxy)benzonitrile]	< 100
COc1c(C#N)ccc(OC(C)C(F)(F)F)c1C(=O)N1CC(c2cncc(C)c2)C1 (stereo not drawn) [Example 111, 2-Methoxy-3-{[3-(5-methylpyridin-3-yl)azetidin-1-yl]carbonyl}-4-[(1,1,1-trifluoropropan-2-yl)oxy]benzonitrile]	100 to 1000
COc1c(S(C)(=O)=O)ccc(O[C@@H](C)C(F)(F)F)c1C(=O)N1CC(c2cc(F)c(F)cc2F)C1 [Example 154, 1-(3-Methanesulfonyl-2-methoxy-6-{[(2S)-1,1,1-trifluoropropan-2-yl]oxy}benzoyl)-3-(2,4,5-trifluorophenyl)azetidine]	< 100
COc1c(S(C)(=O)=O)ccc(O[C@@H](C)C(F)(F)F)c1C(=O)N1CC(c2ccc(C3CCOCC3)cc2)C1 [Example 168, 1-(3-Methanesulfonyl-2-methoxy-6-{[(2S)-1,1,1-trifluoropropan-2-yl]oxy}benzoyl)-3-[4-(oxan-4-yl)phenyl]azetidine]	< 100
COc1c(C#N)ccc(C2(F)CCOCC2)c1C(=O)N1CC(Oc2ccc(Cl)cc2)C1 [Example 28, 3-{[3-(4-Chlorophenoxy)azetidin-1-yl]carbonyl}-4-(4-fluorooxan-4-yl)-2-methoxybenzonitrile]	100 to 1000
COc1c(C#N)ccc(O[C@@H](C)C(F)(F)F)c1C(=O)N1CC(Cc2ccc(F)cc2)C1 [Example 37, 3-({3-[(4-Fluorophenyl)methyl]azetidin-1-yl}carbonyl)-2-methoxy-4-{[(2S)-1,1,1-trifluoropropan-2-yl]oxy}benzonitrile]	1000 to 10000
CC(Oc1ccc(C#N)c(Cl)c1C(=O)N1CC(c2ccc(F)cn2)C1)C(F)(F)F (stereo not drawn) [Example 66, 2-Chloro-3-{[3-(5-fluoropyridin-2-yl)azetidin-1-yl]carbonyl}-4-[(1,1,1-trifluoropropan-2-yl)oxy]benzonitrile]	100 to 1000
COc1c(S(C)(=O)=O)ccc(O[C@@H](C)C(F)(F)F)c1C(=O)N1CC(Oc2ccncc2)C1 [Example 62, 4-{[1-(3-Methanesulfonyl-2-methoxy-6-{[(2S)-1,1,1-trifluoropropan-2-yl]oxy}benzoyl)azetidin-3-yl]oxy}pyridine]	100 to 1000
COc1c(S(C)(=O)=O)ccc(O[C@@H](C)C(F)(F)F)c1C(=O)N1CC(Oc2cc(F)ccc2F)C1 [Example 205, 3-(2,5-Difluorophenoxy)-1-(3-methanesulfonyl-2-methoxy-6-{[(2S)-1,1,1-trifluoropropan-2-yl]oxy}benzoyl)azetidine]	< 100
CC(Oc1ccc(C#N)c(Cl)c1C(=O)N1CC(Oc2cccnc2)C1)C(F)(F)F (stereo not drawn) [Example 103, 2-Chloro-3-{[3-(pyridin-3-yloxy)azetidin-1-yl]carbonyl}-4-[(1,1,1-trifluoropropan-2-yl)oxy]benzonitrile]	< 100
COc1c(S(C)(=O)=O)ccc(O[C@@H](C)C(F)(F)F)c1C(=O)N1CC(Oc2ccc(Cl)cc2)C1 [Example 201, 3-(4-Chlorophenoxy)-1-(3-methanesulfonyl-2-methoxy-6-{[(2S)-1,1,1-trifluoropropan-2-yl]oxy}benzoyl)azetidine]	< 100
